In patent US9303069B2, “Peptides for treating cancer” (University of Mississippi Medical Center, priority 2014, dated 2016):

Columns and labels:
Format in all cases: cell-based, human
[1] = test system: HOSE and HOSE/IRIS cells; assay: Survival of HOSE versus HOSE/IRIS cells; settings: 10 μM inhibitor, 24 hours
Procedure: To test that, HOSE or HOSE/IRIS cells were incubated for 24 hours with 10 μM of ErbB2 (CP-724714), EGFR (Erlotinib), TrkB (K252a), JNK (SP600125), p38 (SB203580), ERK (PD98059) and PI3′K/AKT (LY294002) inhibitors. […] Taken together, BRCA1-IRIS overexpression activates AKT and ERK, thereby inactivating FOXO3a and promoting Cyclin D1, survivin, Bcl-2 and NF-κB expression and suppressing p27 expression (FIG. 15).
HOSE cells overexpressing IRIS show a higher degree of resistance to cisplatin than HOSE cells (compare blue to black line in FIG. 30).
Cell viability measurement. Cell viability under different experimental conditions was determined using the MTS assay […]. Briefly, SKOV3, OVACAR3, HOSE and HOSE/IRIS cells (2.5×10^4 cells per well) were seeded in 96 well plates and incubated overnight at 37° C. in 10% humidified CO2 atmosphere in varying concentrations of IRIS peptide, or inhibitors of ErbB2 (CP-724714), EGFR (Erlotinib), TrkB (K252a), JNK (SP600125), p38 (SB203580), ERK (PD98059) and PI3′K/AKT (LY294002) inhibitors for 24 hours at 37° C. Cell Titer 96® Aqueous (Promega, Madison, Wis., USA) was used to measure viability following manufactures instructions. Cell viability (%) was expressed as a ratio to control cells×100. Growth inhibition was also determined by manually counting cells in five different microscopic fields. Change in cell numbers (fold) was expressed as a ratio to control cells×100. All experiments were done in at least triplicates, three different times. * is p≦0.05, ** is p≦0.001 and *** is p≦0.0001.

[2] = test system: HME and HME/IRIS cells; assay: Survival of HME versus HME/IRIS cells with pathway inhibitors; settings: 10 μM inhibitor, 24 hours
Procedure: Similar numbers of HME or HME/IRIS were grown in the presence of 10 μM of ERK (PD98059), JNK (SP600125), p38 (SB203580), EGFR (Erlotinib), ErbB2 (CP-724714) or PI3′K/AKT (LY294002) inhibitors for 24 hours. In keeping with published data (Nakuci et al., 2006; Hao and ElShamy, 2007; Chock et al., 2010a), BRCA1-IRIS overexpression promoted cells proliferation (FIG. 73). Thus, data are represented as percentage of treatment compared to no treatment in each cell line separately. […] Thus, as expected, cells overexpressing BRCA1-IRIS exerts some of their functions through EGFR/ErbB2 that feeds into PI3′K/AKT/mTOR and MAPK signaling pathways (FIG. 74).
Cell viability measurement. Cell viability under different experimental conditions was determined using the MTS assay. Briefly, cells (2.5×10^4 cells per well) were seeded in 96-well plates and incubated overnight at 37° C. in 10% humidified CO2 atmosphere. The next day they were incubated with varying concentration of peptide, or inhibitors for 24 hours at 37° C. Cell viability was determined using cell Titer 96® Aqueous (Promega, Madison, Wis., USA) following manufacturer's instructions. Cell viability (%) was expressed as a ratio of treated cells to control cells×100. Growth inhibition was also determined by manually counting cells in five different microscopic fields. Change in cell numbers (fold) was expressed as a ratio of the means of these recording of treated cells compared to control cells×100. Each experiment was done in triplicate, repeated three separate times.

[3] = test system: AKT, p-AKT, p-FOXO and FOXO3a; assay: Signalling proteins in MDA-MB-231 and MDA-MB-468 cells (Western); settings: 5 μM IRIS peptide, 10 μM LY294002 or 10 μM PD98059, 24 hours
Description: This was completely in line with decreased MDM2 and Skp2 (the ubiquitin ligases responsible for p-FOXO degradation) expression in BRCA1-IRIS silenced and BRCA1-IRIS and AKT inactivated cells (FIG. 87).

[4] = test system: AKT, ERK, MDM2 and Skp2; assay: Signalling proteins in SKOV3 and OVCAR3 cells (Western)
Description: Finally, to further dissect the IRIS-induced cisplatin resistance pathway, PI3′K/AKT (using […]) and ERK (using PD98059) were inactivated and compared to IRIS peptide in two aggressive ovarian cancer cell lines. […] Phosphorylation of cytoplasmic or nuclear FOXO3a by p-AKT and/or p-ERK promotes MDM2 binding and priming ubiquitylation, which is then followed by Skp2 branching ubiquitylation and FOXO3a degradation (Huang and Tindall, 2011). FOXO was less phosphorylated in LY, PD as well as IRIS-silenced/inactivated SKOV3 or OVCAR3 cells (FIG. 34). […] Consistently, in BRCA1-IRIS silenced/inactivated cells accumulation of unphosphorylated/stabilized FOXO3a was detected. In contrast, FOXO3a was still decreased to different degrees in LY or PD treated cells (FIG. 34).

[5] = test system: BRCA1-IRIS; assay: BRCA1-IRIS expression in breast cells (Western); settings: MDA-MB-231 and MDA-MB-468; 5 μM IRIS peptide, 10 μM LY294002 or 10 μM PD98059 24 hours; siRNA 72 hours
Procedure: HME and HME/IRIS cells were treated with 10, 20 and 50 μM of paclitaxel for 24 hours. Compared to HME/IRIS cells, untreated HME cells express very low level of BRCA1-IRIS (FIG. 68, left). […] Both EGF and NRG1, which were secreted at higher levels from untreated HME/IRIS cells, remained high after paclitaxel (until ˜50 μM, FIG. 68, left), whereas in HME cells, both were induced by low paclitaxel treatment (FIG. 68, left). Consistently, in HME/IRIS cells EGFR was phosphorylated on Y1173 (activated by EGF when EGFR is in complex with ErbB2) and ErbB2 on Y1248 (activated by NRG1 when ErbB2 is in complex with ErbB3) remained the same after paclitaxel treatment (until ˜50 μM, FIG. 68, left). Phosphorylated EGFR-Y1173 and ErbB2-Y1248 was only observed in paclitaxel treated HME cells, especially at low concentration (FIG. 68, left).
Survived/paclitaxel-resistant cells were then propagated in the absence of paclitaxel and analyzed. Again, the intrinsically high level of BRCA1-IRIS was not affected by paclitaxel in HME/IRIS cells (FIG. 69, left). […] The expressions of EGFR, ErbB2 and ErbB3 were high in HME/IRIS and HME cells (FIG. 69, left). Despite an intrinsic increase in HME/IRIS and paclitaxel-acquired increase in HME cells in AKT activation, FOXO inactivation/degradation and thus activation increase in CyclinD1, survivin, Bcl-2, Bcl-xL and NF-κB was observed (FIG. 69, right).
To test that hypothesis, an intron 11 peptide (right in FIG. 26) fused to a cell/nucleus penetrating signal at its N-terminus (left in FIG. 26) was synthesized (hereafter IRIS peptide). First, to assess the effect of this IRIS peptide, equal numbers of HME, HME/IRIS, MDA-MB-231, MDA-MB-468 and BT549 cells were exposed to increasing concentrations of scrambled or IRIS peptide for 48 hours. […] It is possible that preventing BRCA1-IRIS-X complex formation destabilizes BRCA1-IRIS and perhaps leads to its degradation.
To investigate whether inactivating BRCA1-IRIS could sensitize TNBC to paclitaxel-induced cell death, HME cells were exposed to 0.5 μM, while HME/IRIS, MDA-MB-231, MDA-MB-468 and BT549 cells were exposed to 5 μM of IRIS peptide alone or with 5, 10 or 20 μM of paclitaxel for 24 hours. […] Again, IRIS peptide alone at these concentrations led to 50% reduction in survival of all cell lines. […] Indeed, in the presence of IRIS peptide >60%, >70% and >90% reduction in the survival of all cell lines in the presence of 5, 10 and 20 μM of paclitaxel, respectively (FIG. 84).
To relate the effect of IRIS peptide on cell survival to the effect of BRCA1-IRIS on AKT and ERK survival pathways, MDA-MB-231 and MDA-MB-468 were treated with vehicle, 5 μM of IRIS peptide, 10 μM LY294002, 10 μM PD98059 for 24 hours or were transfected with BRCA1-IRIS siRNA for 72 hours.

| Compound | effect on survival of HOSE versus HOSE/IRIS cells [1] | effect on survival of HME versus HME/IRIS cells [2] | p-FOXO and FOXO3a levels [3] | AKT and ERK expression and activation [4] | MDM2 and Skp2 expression [4] | BRCA1-IRIS expression [5] |
| --- | --- | --- | --- | --- | --- | --- |
| COCC(=O)NC/C=C/c1ccc2ncnc(Nc3ccc(Oc4ccc(C)nc4)c(C)c3)c2c1 [CP-724714] | significantly decreased survival of HOSE/IRIS cells only | specifically reduced survival in HME/IRIS and not HME cells | – | – | – | – |
| C#Cc1cccc(Nc2ncnc3cc(OCCOC)c(OCCOC)cc23)c1 [Erlotinib] | equally decreased survival of HOSE and HOSE/IRIS cells | reduced survival of both cell lines | – | – | – | – |
| COC(=O)[C@@]1(O)C[C@H]2O[C@]1(C)n1c3ccccc3c3c4c(c5c6ccccc6n2c5c31)C(=O)NC4 [K252a] | significantly decreased survival of HOSE/IRIS cells only | – | – | – | – | – |
| COc1cccc(-c2cc(=O)c3ccccc3o2)c1N [PD98059] | significantly decreased survival of HOSE/IRIS cells only | specifically reduced survival in HME/IRIS and not HME cells | no effect | significantly inactivated their cognate protein | reduced Skp2 and not MDM2 expression | significantly reduced BRCA1-IRIS expression in MDA-MB-231 and to a lesser degree in MDA-MB-468 |
| C[S+]([O-])c1ccc(-c2nc(-c3ccncc3)c(-c3ccc(F)cc3)[nH]2)cc1 (stereo not shown) [SB203580] | equally decreased survival of HOSE and HOSE/IRIS cells | no effect on either cell line | – | – | – | – |
